Experimental data: ChEMBL document CHEMBL1201862, “PubChem BioAssay data set” (2004)
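Cultured in 96-well plates, cells were exposed to test compound for 48 hours across five concentrations. Here, GI50 denotes the concentration required for 50% inhibition of growth.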 The source made the active and inactive calls. No stated cut-off is given here; in the data, active = GI50 up to about 1.1 µM and inactive = higher.

How the values were obtained:
Assay in all cases: NCI-60 cell line screen, 48 h
[1] = tested on: KM-20L2
[2] = tested on: LXFL 529
[3] = tested on: M19-MEL
[4] = tested on: DLD-1
[5] = tested on: XF498
[6] = tested on: HOP-18
[7] = tested on: RXF 631
[8] = tested on: BT-549
[9] = tested on: MDA-N

SMILES | GI50 [1] | GI50 [2] | GI50 [3] | GI50 [4] | GI50 [5] | GI50 [6] | GI50 [7] | GI50 [8] | GI50 [9]
Cc1ccc(-c2nc3ccccc3c(=O)n2NCC2(O)OCC(O)C(O)C2O)cc1 (stereo not drawn) | > 100 µM (inactive) | > 100 µM (inactive) | > 100 µM (inactive) |  |  |  |  |  | 
C[C@]12CC[C@H](O)CC1=CC[C@@H]1C2CC[C@]2(C)NC(=O)C(C#N)CC12 (stereo partly drawn) | > 100 µM (inactive) | > 100 µM (inactive) | > 100 µM (inactive) | > 100 µM (inactive) | > 100 µM (inactive) |  |  |  | 
Cc1cccc(C)c1NC(=O)C(=O)C1C(=O)NC(=O)NC1=O | > 100 µM (inactive) | > 100 µM (inactive) | > 100 µM (inactive) | > 100 µM (inactive) | > 100 µM (inactive) | > 100 µM (inactive) | > 100 µM (inactive) |  | 
COc1cc(/C=C(\C#N)C(=O)c2ccccc2)cc(OC)c1OC | > 100 µM (inactive) | > 100 µM (inactive) | > 100 µM (inactive) | > 100 µM (inactive) |  | > 100 µM (inactive) |  |  | 
CC1CN1c1c(C(=O)/C=C/c2ccccc2)c(-c2ccccc2)nn(C)c1=O (stereo not drawn) | 19.1 µM (inactive) | 15.3 µM (inactive) | 17.3 µM (inactive) | 15.2 µM (inactive) |  | 26.2 µM (inactive) |  |  | 
CC1CC(=O)Nc2ccc(Cl)cc2N1C(=O)CN1CCC(CCCCN(C)C)CC1 (stereo not drawn) | 43.2 µM (inactive) | > 100 µM (inactive) |  | > 100 µM (inactive) |  | > 100 µM (inactive) | > 100 µM (inactive) |  | 
CCC(=O)N1C(=O)OCC1C(C)C (stereo not drawn) | > 100 µM (inactive) | > 100 µM (inactive) | > 100 µM (inactive) | > 100 µM (inactive) | > 100 µM (inactive) | 15.8 µM (inactive) | > 100 µM (inactive) |  | 
CC(C)(C)c1ccc(Oc2ccc(C#N)c(C#N)c2)c(C(C)(C)C)c1 | 44 µM (inactive) | 31.2 µM (inactive) |  | 37 µM (inactive) | 12.6 µM (inactive) | > 100 µM (inactive) | > 60.3 µM (inactive) |  | 
CCCNCc1nc2ccc(Br)cc2c(=O)n1CCC | 19.2 µM (inactive) | 12.6 µM (inactive) | 13.2 µM (inactive) | 8.09 µM (inactive) | 16.9 µM (inactive) | 18.1 µM (inactive) | 7.05 µM (inactive) |  | 
N#CC(/C(=N\NC(N)=S)C(=O)NC1C2CC3CC(C2)CC1C3)c1ccc(Cl)cc1 (stereo not drawn) | > 100 µM (inactive) | > 100 µM (inactive) | > 100 µM (inactive) | > 100 µM (inactive) | > 100 µM (inactive) | > 100 µM (inactive) | > 100 µM (inactive) |  | 
Cc1cc2c(=O)cc(-c3ccc(C(=O)O)cc3)oc2c(C(N)=O)c1C | > 100 µM (inactive) | > 100 µM (inactive) | > 100 µM (inactive) | > 100 µM (inactive) |  |  | > 100 µM (inactive) |  | 
O=C(O)CCSC(=O)Nc1ccccc1 | > 100 µM (inactive) | 61.9 µM (inactive) |  | > 100 µM (inactive) |  |  |  |  | 
N#CC1(C#N)C(c2ccccc2)C=CC12OCCCO2 (stereo not drawn) | 68.5 µM (inactive) | 28.5 µM (inactive) | 40.3 µM (inactive) | 26 µM (inactive) | 49.4 µM (inactive) | > 100 µM (inactive) | 81.3 µM (inactive) |  | 
CCCCC(C(=O)CCC(=O)Nc1ccc(Cl)cc1)C(=O)C(C)C (stereo not drawn) | > 100 µM (inactive) | 92.7 µM (inactive) | > 100 µM (inactive) | > 100 µM (inactive) | > 100 µM (inactive) |  | > 100 µM (inactive) |  | 
COc1cc(/C=N/c2nncs2)ccc1O | > 100 µM (inactive) | > 100 µM (inactive) | > 100 µM (inactive) |  | > 100 µM (inactive) | > 100 µM (inactive) | > 100 µM (inactive) |  | 
COC(=O)c1c(OC)cccc1C(=O)O | > 100 µM (inactive) | > 100 µM (inactive) | > 100 µM (inactive) |  |  | > 100 µM (inactive) | > 100 µM (inactive) |  | 
COc1ccc2c3ccc4c(c3n(C)c2c1)C(=O)c1ccccc1C4=O | 39.8 µM (inactive) | 78 µM (inactive) | > 100 µM (inactive) | > 100 µM (inactive) |  | > 100 µM (inactive) |  |  | 
COC(=O)C(=O)C1(CCC(C)=O)c2ccccc2-c2ccccc21 | > 100 µM (inactive) | 47.1 µM (inactive) | > 100 µM (inactive) | 66.2 µM (inactive) |  | 71.6 µM (inactive) |  |  | 
CN1OC2OC(=O)OC2[C@H]1[C@H]1O[C@H](c2ccccc2)OC1(C)c1cc(OC(=O)c2ccccc2)ccc1OC(=O)c1ccccc1 (stereo partly drawn) | > 50 µM (inactive) | > 50 µM (inactive) | > 50 µM (inactive) | > 50 µM (inactive) | > 50 µM (inactive) |  | > 50 µM (inactive) |  | 
COc1ccc2[nH]c3c(C)c4ccnc(NCCCN(C)CCCN)c4c(C)c3c2c1 |  |  |  |  |  |  |  | 1.76 µM (inactive) | 0.214 µM (active)
C[C@H]1NC(=O)C2CCCCN2C(=O)CN(C)C(=O)CNC(=O)C2CCCCN2C(=O)[C@@H](NC(=O)c2nc3ccccc3cc2O)[C@@H](C)NC(=O)C2CCCCN2C(=O)CN(C)C(=O)CNC(=O)[C@@H]2CCCCN2C(=O)C1NC(=O)c1nc2ccccc2cc1O (stereo partly drawn) | 0.378 µM (active) | 0.14 µM (active) | 0.181 µM (active) |  |  |  | 0.164 µM (active) |  | 
OCC(O)C(O)C(O)c1nn(-c2ccc(Cl)cc2)c2nc3cc(Cl)c(Cl)cc3nc12 (stereo not drawn) | > 100 µM (inactive) | 33 µM (inactive) | > 100 µM (inactive) | > 100 µM (inactive) | 11.1 µM (inactive) | 31.9 µM (inactive) |  |  | 
COC1=CC(C)C2C[C@H]3O[C@H](O)C[C@H]4C(C)C(=O)C(O)C([C@@]2(C)C1=O)[C@@]34C (stereo partly drawn) |  | > 100 µM (inactive) | > 100 µM (inactive) | > 100 µM (inactive) |  | > 100 µM (inactive) |  |  | 

SMILES | GI50 [1] | GI50 [2] | GI50 [3] | GI50 [4] | GI50 [5] | GI50 [6] | GI50 [7] | GI50 [8] | GI50 [9]
O=C1NC(Cc2ccccc2)C(=O)N2CCCC12 (stereo not drawn) | > 100 µM (inactive) | > 100 µM (inactive) | > 100 µM (inactive) | > 100 µM (inactive) | > 100 µM (inactive) | > 100 µM (inactive) |  |  | 
C=CCN1CCN([C@H](c2ccc(C(=O)N(CC)CC)cc2)c2cccc(OC)c2)CC1 |  |  |  |  |  |  |  | > 25 µM (inactive) | > 25 µM (inactive)
CN(C)c1ccc(/C=C/C(=O)c2ccccc2)cc1Br | 25.1 µM (inactive) | 15.1 µM (inactive) | 18.7 µM (inactive) | 18.9 µM (inactive) | 16.3 µM (inactive) |  |  |  | 
CN(C)CCNC(=O)c1cc([N+](=O)[O-])ccn1 |  |  |  |  |  |  |  | 84.5 µM (inactive) | 16.7 µM (inactive)
CCCCCC/C=C\CCCCCCCCC(=O)c1cccc(OC)c1OC |  |  |  |  |  |  |  | > 100 µM (inactive) | 91.8 µM (inactive)
Cn1c(CCC#N)nc2ccc(Br)cc2c1=O | > 100 µM (inactive) | > 100 µM (inactive) |  | > 100 µM (inactive) | > 100 µM (inactive) |  | > 100 µM (inactive) |  | 
CC(=O)OC1COC(n2nc(/C=C/c3ccc(Cl)cc3)c(=O)n(/N=C/c3ccccc3)c2=S)C(OC(C)=O)C1OC(C)=O (stereo not drawn) |  |  |  |  |  |  |  | > 100 µM (inactive) | > 100 µM (inactive)
COC(=O)C1CC(OC(C)=O)C=C2C(=O)CCC21 (stereo not drawn) | 30.2 µM (inactive) | 15.5 µM (inactive) | 22.4 µM (inactive) | 14.5 µM (inactive) |  | 20.5 µM (inactive) | 27.5 µM (inactive) |  | 
CCN(CC)CCCNc1ccc([N+](=O)[O-])c2nc3ccccc3c(N)c12 |  |  |  |  |  |  |  | 1.4 µM (inactive) | 0.492 µM (active)
CCN(CC)C1=Nc2ccccc2-n2c(C)cnc2C1 |  |  |  |  |  |  |  | > 100 µM (inactive) | > 100 µM (inactive)
COC(=O)C(CC=O)C(=O)C(=O)Nc1cccc(C(F)(F)F)c1 (stereo not drawn) | > 100 µM (inactive) | > 100 µM (inactive) | > 100 µM (inactive) | > 100 µM (inactive) | > 100 µM (inactive) | > 100 µM (inactive) | > 100 µM (inactive) |  | 
O=C(c1cc(O)ccc1O)c1ccccc1C(Cl)(Cl)Cl | > 100 µM (inactive) | 61.4 µM (inactive) | 90.8 µM (inactive) |  | 34.9 µM (inactive) | > 100 µM (inactive) |  |  | 
CC(=O)OCC(OC(C)=O)C(OC(C)=O)C(OC(C)=O)C(/C=N\Nc1nc2ccccc2c(=O)[nH]1)=N/Nc1nc2ccccc2c(=O)[nH]1 (stereo not drawn) |  |  |  |  |  |  |  | > 100 µM (inactive) | > 100 µM (inactive)
CC(=O)O/C(=C(/C#N)C(=O)O)C1C(C(=O)O)C(c2ccccc2[N+](=O)[O-])C=C(c2ccco2)N1c1ccncc1 (stereo not drawn) |  |  |  |  |  |  |  | 6.04 µM (inactive) | 2.81 µM (inactive)
CN1[C@@H]2CCCC[C@H]2N(C)P1(=O)C(O)/C=C/c1ccccc1 (stereo partly drawn) |  |  |  |  |  |  |  | > 100 µM (inactive) | > 100 µM (inactive)
CCOP(=O)(OCC)/C(F)=C/c1ccc(F)cc1 |  |  |  |  |  |  |  | > 100 µM (inactive) | > 100 µM (inactive)
COC(=O)CN1C(=O)C2(C(=O)OC)OC1(c1ccc([N+](=O)[O-])cc1)C1C(=O)N(c3ccccc3)C(=O)C12 (stereo not drawn) |  |  |  |  |  |  |  | > 100 µM (inactive) | > 100 µM (inactive)
CC(=O)OCC12C(OC(C)=O)C[C@@H](C)C3(CC(c4ccoc4)OC3=O)C1CCC(OC(C)=O)C21CO1 (stereo partly drawn) |  |  |  |  |  |  |  | > 100 µM (inactive) | > 100 µM (inactive)
CCCN(CCCCN1C(=O)c2ccccc2C1=O)CC1COc2ccccc2O1 (stereo not drawn) |  |  |  |  |  |  |  | > 100 µM (inactive) | > 100 µM (inactive)
CCOC(=O)/C(=C\NC(C)(C)C)c1nc2ccccc2[nH]1 |  |  |  |  |  |  |  | 27.9 µM (inactive) | 22.9 µM (inactive)
Cc1cc(O)c2c(c1)C(O)(c1ccc3c(c1O)C(=O)c1c(O)cc(C)cc1C3(O)C1OC(CO)C(O)C(O)C1O)c1cccc(O)c1C2=O (stereo not drawn) | 18.6 µM (inactive) | 11.9 µM (inactive) | 12.2 µM (inactive) | 11.5 µM (inactive) | 5.08 µM (inactive) | 5.06 µM (inactive) | 16 µM (inactive) |  | 
Oc1ccc(/N=N/c2ccc(Cl)cc2)cc1 |  |  |  |  |  |  |  | 15.1 µM (inactive) | 16.9 µM (inactive)
N#CC(C#N)=C1NN=C(Cl)c2ccccc21 | > 100 µM (inactive) | 65 µM (inactive) | > 100 µM (inactive) | > 100 µM (inactive) |  | 37.3 µM (inactive) | 80.5 µM (inactive) |  | 
